Measurements reported in paper PMC8629322 (ACS chemical neuroscience, 2020).

Legend:
[1] = target: T1, biotinylated RNA:GST-MSUT2 ZF (Homo sapiens, UniProt Q6PJT7); test: AlphaScreen orthogonal poly; type: binding; conditions: for inhibition activity by AlphaScreen: dose-response, 50 nM biotinylated RNA, 50 nM GST-MSUT2
T1 sequence (Q6PJT7 601-736): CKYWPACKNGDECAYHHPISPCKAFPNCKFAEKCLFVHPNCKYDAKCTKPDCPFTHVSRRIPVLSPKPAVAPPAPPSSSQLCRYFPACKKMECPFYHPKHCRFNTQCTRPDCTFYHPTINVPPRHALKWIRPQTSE

Cell viability assay = conditions: human, HEK293 cells
[2] = cited from earlier work
[3] = target: T2, FAM-RNA:MSUT2 ZF complex (poly(A):MSUT2 RNA-protein interaction) (Homo sapiens, UniProt Q6PJT7); test: Fluorescence polarization assay of FAM-poly; type: binding
T2 sequence (Q6PJT7 601-736): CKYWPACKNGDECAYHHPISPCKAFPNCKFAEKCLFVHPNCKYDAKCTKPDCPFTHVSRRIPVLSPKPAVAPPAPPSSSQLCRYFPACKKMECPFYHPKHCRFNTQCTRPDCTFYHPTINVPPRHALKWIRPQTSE

poly(A) = conditions: cited from earlier work
PABPN1 = target: T3, PABPN1 (Homo sapiens, UniProt Q86U42); test: PABPN1 fluorescence polarization counter screen; type: binding
T3 sequence (Q86U42 1-306): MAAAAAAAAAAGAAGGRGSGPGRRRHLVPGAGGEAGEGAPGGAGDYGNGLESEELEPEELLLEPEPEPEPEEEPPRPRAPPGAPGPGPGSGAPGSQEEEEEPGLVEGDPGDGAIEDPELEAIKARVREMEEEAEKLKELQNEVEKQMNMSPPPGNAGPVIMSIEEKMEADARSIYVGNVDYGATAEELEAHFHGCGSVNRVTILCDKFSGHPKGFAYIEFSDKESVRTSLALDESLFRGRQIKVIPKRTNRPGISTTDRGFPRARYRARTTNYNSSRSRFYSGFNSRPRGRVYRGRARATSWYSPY

[4] = tested on: hippocampus neuronal loss; conditions: rat model of chronic cerebral hypoperfusion; cited from earlier work
[5] = tested on: albumin and α1-acid glycoprotein in the plasma; conditions: cited from earlier work
efflux transporters = conditions: cited from earlier work
[6] = target: T4, MSUT2 ZF (CCCH domains only) (UniProt Q6PJT7 601-736); test: competition
T4 sequence: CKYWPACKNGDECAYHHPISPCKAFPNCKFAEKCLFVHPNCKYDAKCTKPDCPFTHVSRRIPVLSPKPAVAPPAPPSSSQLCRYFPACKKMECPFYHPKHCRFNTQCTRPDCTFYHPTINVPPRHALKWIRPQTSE

Molecule | inhibition activity by AlphaScreen [1] | IC50 [3] | IC50 (PABPN1) | further results
CC(C)/N=c1\cc2n(-c3ccc(Cl)cc3)c3ccccc3nc-2cc1Nc1ccc(Cl)cc1 [clofazimine] | dose-dependent inhibition activity | 0.731 µM | 23 µM | viability at 72 h (Cell viability assay): > 90%; crossing of the blood-brain barrier [2]: unable to cross the blood-brain barrier; interaction with poly(A) (poly(A)): little interaction
CNCC[C@H](Oc1cccc2ccccc12)c1cccs1 [duloxetine] | dose-dependent inhibition activity | – | 4.98 µM | concentration range of inhibition measured by AS ([1]; over a single log unit): 1.0 to 10 µM; neuronal loss in the hippocampus [4]: attenuated neuronal loss in the hippocampus; viability at 72 h (Cell viability assay): > 90%; penetration into cerebral spinal fluid [2]: crosses into cerebral spinal fluid at a much lower rate than other antidepressants; bound to albumin and α1-acid glycoprotein in the plasma [5]: ~ 90%; concentration range of inhibitory response in FP assay ([3]; acted over 4 log units): 0.01 to 10 µM
CN1C2CCCC1CC(NC(=O)c1nn(C)c3ccccc13)C2 (centres unmarked) [granisetron] | – | 0.306 µM | 8.65 µM | –
AAAAAAAAAAAAAAA (ssRNA) [unlabeled poly(A)15 RNA] | – | – | – | IC50 [6]: 0.29 µM

Now from value to molecule, other results behind:

inhibition activity by AlphaScreen [1] | IC50 [3] | IC50 (PABPN1) | Molecule | further results
– | – | 6.69 µM | CC(C(=O)O)c1ccc(-c2ccccc2)c(F)c1 (centres unmarked) [flurbiprofen] | –
– | – | 9.09 µM | OCCOCCN1CCN(C(c2ccccc2)c2ccc(Cl)cc2)CC1 (centres unmarked) [hydroxyzine] | –
– | 0.247 µM | 35.8 µM | CC(C)(C)NC(=O)[C@@H]1CN(Cc2cccnc2)CCN1C[C@@H](O)C[C@@H](Cc1ccccc1)C(=O)N[C@H]1c2ccccc2C[C@H]1O [indinavir] | –
dose-dependent inhibition activity | – | 0.617 µM | CC(C)(C)NC(=O)[C@@H]1C[C@@H]2CCCC[C@@H]2CN1C[C@@H](O)[C@H](Cc1ccccc1)NC(=O)[C@H](CC(N)=O)NC(=O)c1ccc2ccccc2n1 [saquinavir] | viability at 72 h, 40 µM (Cell viability assay): 65%; efflux transporter substrate (efflux transporters): substrate of efflux transporters; brain penetrance [2]: low brain penetrance
